Laboratory results from patent US20250101062A1, “ANTIMICROBIAL PEPTIDES” (Board of Regents of the University of Nebraska, priority 2023, published 2025).
In brackets after ≈: the same amount, converted by molar mass. Where two headings read alike, the source gives them in different places. Where a SMILES comes first, the peptide text is derived from it. Where no end group is shown, it is not given here.

How the values were obtained:
[1] = Effect of MHB dilution on antibacterial activity of a panel of antibiotics; format: cell-based; settings: MHB from 100 to 12.5%
Procedure: FIGS. 2A-2D show biofilm disruption activity of human LL-37 (FIGS. 2A and 2B) and 17BIPHE2 (FIGS. 2C and 2D) against the 24 hour preformed biofilms of S. aureus USA300 LAC in different MHB media: 12.5% MHB (FIGS. 2A and 2C) and 100% MHB (FIGS. 2B and 2D). FIGS. 2E-2H show the treatment outcome of LL-37 (FIGS. 2E and 2F) and 17BIPHE2 (FIGS. 2G and 2H) against the 24-hour preformed biofilms of E. coli E423-17 in different MHB media: 12.5% MHB (FIGS. 2E and 2G) and 100% MHB (FIGS. 2F and 2H). […] Growth curves of S. aureus USA 300 LAC (FIGS. 2J-2K) and P. aeruginosa 152 (FIGS. 2L-2M) in 12.5%, 25%, 50% and 100% MHB or TSB medium (curves from bottom to top).
The effects of MHB dilution on the antimicrobial activity of a panel of antibiotics was also compared (FIG. 2I).

S. aureus USA300 LAC = test: microbe, parasite or virus in culture; format: cell-based, Staphylococcus aureus
Procedure: (§1) The following resistant bacterial clinical strains were used in this study: S. aureus USA300 LAC, S. epidermidis 1457, E. coli E423-17, P. aeruginosa E411-17, K. pneumoniae E406-17, and A. baumannii B28-16. While the S. aureus USA300 strain is methicillin-resistant, most of the Gram-negative bacteria contain extended-spectrum beta-lactamase and are resistant to beta-lactam antibiotics. Peptide activity against bacteria was tested using an established lab protocol (Mishra, et al. (2017) Acta Biomater., 49:316-328). In brief, a peptide concentration gradient with twofold dilution was made in the 96-well polystyrene microplate at 10 μL per well. Bacteria were grown to the exponential phase (i.e., optical density at 600 nm≈0.5), diluted to ˜10^5 CFU/mL in different percentages of MHB, TSB, or LB, and partitioned into the 96-well microplate at 90 μL per well. […] They were diluted with autoclaved distilled water to obtain different percentages. The microplates were incubated at 37° C. overnight and read on a ChroMate™ 4300 microplate reader at 600 nm (GMI, Ramsey, MN). The peptide concentration in the wells without bacterial growth is the MIC. As is the convention, MIC values were represented as ranges.
(§2) For pH effects on peptide activity, the pH of the medium was adjusted to a targeted pH for the autoclave and then remeasured at room temperature. For salt and serum effects on peptide activity, stock NaCl solution or human serum was added to the media.
(§3) Peptide activity against bacteria were tested using the CLSI standard procedure with minor modifications (Clinical and Laboratory Standards Institute (2018) Performance standards for antimicrobial susceptibility testing, 9th ed.; Mishra, et al. (2019) Proc. Natl. Acad. Sci., 116(27):13517-13522). In brief, a peptide concentration gradient with twofold dilution was made in the 96-well polystyrene microplate at 10 μL per well. Bacteria were grown to the exponential phase (i.e., optical density at 600 nm≈0.5), diluted to ˜10^5 CFU/mL in MHB, and partitioned into the 96-well microplate at 90 μL per well. The microplates were incubated at 37° C. overnight and read on a ChroMate® 4300 Microplate Reader at 600 nm (GMI, Ramsey, MN). The peptide concentration in the wells without bacterial growth is the minimal inhibitory concentration (MIC). As the convention, MIC values were represented as ranges.
(§4) For pH effects on peptide activity, the pH of the medium was adjusted to a targeted pH for autoclave and then remeasured at room temperature. For salt and serum effects on peptide activity, stock NaCl solution or human serum were added to the media.

S. epidermidis 1457 = test: microbe, parasite or virus in culture; format: cell-based, Staphylococcus epidermidis; settings: read-out: Antimicrobial activity (MIC) S. epidermidis 1457
Procedure: as §1, §3

P. aeruginosa E411-17 = test: microbe, parasite or virus in culture; format: cell-based, Pseudomonas aeruginosa; settings: for MIC: read-out: Antimicrobial activity (MIC)
Procedure: as §1, §2, §3, §4

E. coli E423-17 = format: cell-based, Escherichia coli
Procedure: as §1, §2, §3, §4

A. baumannii B28-16 = format: cell-based, Acinetobacter baumannii; settings: B28-16
Procedure: as §1, §3

E. coli = settings: data from the antimicrobial peptide database; cited from earlier work
K. pneumoniae E406-17 = format: cell-based, Klebsiella pneumoniae
Procedure: as §1, §3

[2] = Staphylococcus aureus, MRSA / USA300, MRSA in MHB, 20% serum, read-out: Antimicrobial activity (MIC)
[3] = USA300, read-out: Antimicrobial activity (MIC)

Compound: NCC[C@H](O)C(=O)N[C@@H]1C[C@H](N)[C@@H](O[C@H]2O[C@H](CN)[C@@H](O)[C@H](O)[C@H]2O)[C@H](O)[C@H]1O[C@H]1O[C@H](CO)[C@@H](O)[C@H](N)[C@H]1O [Amikacin]
- change in MIC with dilution of MHB [1]: small changes in MIC values
- change of MIC / activity (S. aureus USA300 LAC; MRSA in MHB, 10% human serum): fourfold
- MIC (S. aureus USA300 LAC; [2]): 32 to 64 µM (≈ 18.7 to 37.5 µg/mL)
- MIC (S. aureus USA300 LAC; Staphylococcus aureus, MRSA / USA300, pH 6.3, MRSA in MHB, pH 6.3, read-out: Antimicrobial activity (MIC)): 32 µM (≈ 18.7 µg/mL)
- MIC (S. aureus USA300 LAC; Staphylococcus aureus, MRSA / USA300, pH 7.2, MRSA in MHB, pH 7.2, read-out: Antimicrobial activity (MIC)): 8 µM (≈ 4.68 µg/mL)

Compound: CCCCCCCCCC(=O)N[C@H](CCCCN)C(=O)N[C@H](CCCNC(=N)N)C(=O)N[C@@H](C(=O)N[C@@H](C(=O)N[C@H](CCC(N)=O)C(=O)N[C@H](CCCNC(=N)N)C(=O)N[C@@H](C(=O)N[C@H](CCCCN)C(N)=O)[C@H](C)CC)C(C)C)[C@H](C)CC [C10-KR8, reference compound] (HELM PEPTIDE1{[CCCCCCCCCC(=O)[*:2]].[dK].[dR].[dI].[dV].[dQ].[dR].[dI].[dK].[am]}$$$$V2.0; N-terminus and C-terminus assumed)
- MIC (S. epidermidis 1457): 4 µM (≈ 4.77 µg/mL)
- Antimicrobial activity (MIC) P. aeruginosa E411-17 (P. aeruginosa E411-17; E411-17): 8 µM
- MIC (P. aeruginosa E411-17; E411-17, pH 6.21): 16 µM (≈ 19.1 µg/mL)
- Antimicrobial activity (MIC) (P. aeruginosa E411-17; E411-17, pH 7.22): 4 to 8 µM
- MIC (P. aeruginosa E411-17; E411-17, pH 8.13): 4 µM (≈ 4.77 µg/mL)
- MIC (P. aeruginosa E411-17; E411-17): 16 µM (≈ 19.1 µg/mL)
- Antimicrobial activity (MIC) E. coli E423-17 (E. coli E423-17; E423-17): 8 µM
- Antimicrobial activity (MIC) A. baumannii B28-16 (A. baumannii B28-16): 4 µM
- MIC (S. aureus USA300 LAC; USA300, pH 6.21, read-out: Antimicrobial activity (MIC)): 8 µM (≈ 9.55 µg/mL)
- MIC (S. aureus USA300 LAC; USA300, pH 7.22, read-out: Antimicrobial activity (MIC)): 4 µM (≈ 4.77 µg/mL)
- MIC (S. aureus USA300 LAC; USA300, pH 8.13, read-out: Antimicrobial activity (MIC)): 2 µM (≈ 2.39 µg/mL)
- MIC (S. aureus USA300 LAC; [3]): 4 µM (≈ 4.77 µg/mL)
- MIC (S. aureus USA300 LAC; USA300, read-out: Antimicrobial activity (MIC) S. aureus USA300): 4 µM (≈ 4.77 µg/mL)

Compound: CC(=O)NC[C@H]1CN(c2ccc(N3CCOCC3)c(F)c2)C(=O)O1 [Linezolid]
- change in MIC with dilution of MHB [1]: essentially no changes
- MIC (S. aureus USA300 LAC; [2]): 8 to 16 µM (≈ 2.7 to 5.4 µg/mL)
- MIC (S. aureus USA300 LAC; Staphylococcus aureus, MRSA / USA300, MRSA in MHB, NaCl (150 mM), read-out: Antimicrobial activity (MIC)): 8 µM (≈ 2.7 µg/mL)

Compound: FKRIVQRIKDFLRNLV [FK-16, reference compound]
- Antimicrobial activity (MIC) (E. coli E423-17; MHB 12.5%): active
- Antimicrobial activity (MIC) (E. coli E423-17; MHB 100%): active
- Antimicrobial activity (MIC) (S. aureus USA300 LAC; MHB 12.5%): active
- Antimicrobial activity (MIC) (S. aureus USA300 LAC; MHB 100%): active

Compound: GGLKKLGKKLEGAGKRVFKASEKALPVVVGIKAIGK (listed as Aedes aegypti) [Aedesin]
- MIC against E. coli (E. coli): 2 to 4 µg/mL

Compound: GIWSSIKNLASKAWNSDIGQSLRNKAAGAINKFVADKIGVTPSQAAS (vaejovis mexicanus) [Vejovine]
- MIC against E. coli (E. coli): 4.4 to 20 µM

Compound: GVFDIIKGAGKQLIARAMGKIAEKVGLNKDGN (listed as Leptodactylus pustulatus) [Ocellatin-PT8]
- MIC against E. coli (E. coli): 60 µM

Compound: GWLKKIGKKIERVGQHTRDATIQGLGIAQQAANVAATAR (Drosophila melanogaster) [Sarcotoxin IA]
- MIC against E. coli (E. coli): 0.2 to 6.3 µg/mL

Compound: KEKIGKEFKR-NH2 (C-terminus assumed) [KE-10]
- Antimicrobial activity (MIC) (E. coli E423-17; E423-17): >64 µM
- MIC (S. aureus USA300 LAC; [3]): >64 µM

Compound: KRIVQRIK-NH2 [W538]
- Activity (MIC) K. pneumoniae (K. pneumoniae E406-17): >32 µM
- Activity (MIC) P. aeruginosa (P. aeruginosa E411-17; E411-17): >32 µM
- Activity (MIC) E.coli (E. coli E423-17; E423-17): >32 µM
- Antimicrobial activity (MIC) (E. coli E423-17; E423-17): >64 µM
- Antimicrobial activity (MIC) (E. coli E423-17; MHB 12.5%): 8 µM
- Activity (MIC) A. baumannii (A. baumannii B28-16): >32 µM
- Antimicrobial activity (MIC) (S. aureus USA300 LAC; MHB 12.5%): > 64 µM
- Activity (MIC) S. aureus (S. aureus USA300 LAC; USA300): >32 µM
- MIC (S. aureus USA300 LAC; [3]): >64 µM

Compound: KRIVQRIKDFLR-NH2 (C-terminus assumed) [KR-12]
- Antimicrobial activity (MIC) (E. coli E423-17; MHB 100%): active
- Antimicrobial activity (MIC) (S. aureus USA300 LAC; MHB 12.5%): active
- Antimicrobial activity (MIC) (S. aureus USA300 LAC; MHB 100%): did not display any activity
- Antimicrobial activity (MIC) (S. aureus USA300 LAC; USA300): 4 to 8 µM
- MIC (S. aureus USA300 LAC; [3]): 4 µM

Compound: KRIWQRIK-NH2 [W539]
- Activity (MIC) K. pneumoniae (K. pneumoniae E406-17): >32 µM
- Activity (MIC) P. aeruginosa (P. aeruginosa E411-17; E411-17): >32 µM
- Activity (MIC) E.coli (E. coli E423-17; E423-17): >32 µM
- Activity (MIC) A. baumannii (A. baumannii B28-16): >32 µM
- Activity (MIC) S. aureus (S. aureus USA300 LAC; USA300): >32 µM

Compound: KRWWQRWK-NH2 [W541]
- Activity (MIC) K. pneumoniae (K. pneumoniae E406-17): >32 µM
- Activity (MIC) P. aeruginosa (P. aeruginosa E411-17; E411-17): >32 µM
- Activity (MIC) E.coli (E. coli E423-17; KR-8 series, Table 3): 8 µM
- Activity (MIC) A. baumannii (A. baumannii B28-16): >32 µM
- Activity (MIC) S. aureus (S. aureus USA300 LAC; USA300): >32 µM

Compound: KRWWQWWK-NH2 [W542]
- Activity (MIC) K. pneumoniae (K. pneumoniae E406-17): >32 µM
- Activity (MIC) P. aeruginosa (P. aeruginosa E411-17; E411-17): 4 to 8 µM

Compound: KWKFGKKLERIGQNVFRAAEKVLPVATGYAQLPATLAGAKQG (listed as Panorpa sp.) [Pvul-cec]
- MIC against E. coli (E. coli): 8 µg/mL

Compound: LLGDFFRKSK-NH2 (C-terminus assumed) [LL-10]
- MIC (S. aureus USA300 LAC; [3]): >64 µM

Compound: LRNLVPRTES-NH2 (C-terminus assumed) [LR-10]
- Antimicrobial activity (MIC) (E. coli E423-17; E423-17): >64 µM
- MIC (S. aureus USA300 LAC; [3]): >64 µM

Compound: NGNLLGGLLRPVLGVVKGLTGGLGKK (Pleurodema thaul) [Thaulin-1]
- MIC against E. coli (E. coli): 62.5 µg/mL

Compound: RKSKEKIGK-NH2 (C-terminus assumed) [RK-9]
- Antimicrobial activity (MIC) (E. coli E423-17; E423-17): >64 µM
- MIC (S. aureus USA300 LAC; [3]): >64 µM

Compound: RWKFGKKLERMGKRIFKATEKGLPVATGVAALARG (Tunga penetrans) [Tpen-cec]
- MIC against E. coli (E. coli): 8 µg/mL

Compound: RWKIFKKIEKVGQNIRDGIVKAGPAVAVVGQAATI (listed as Bombyx mori) [CM4]
- MIC against E. coli (E. coli): 12 µM

Compound: RWKIFKRIEKVGRNVRDGVIKAGPAVAVLGQAKALGK (listed as Phyllodes eyndhovii) [Peyn-cec]
- MIC against E. coli (E. coli): 8 µg/mL

Compound: SWLSKTAKKLENSAKKRIAEGIAIAIQGGPR (listed as Anisakis sp.) [Anisaxin-3]
- MIC against E. coli (E. coli): 0.5 to 1.0 µM
